Legend:
[1] = target: T1, Brassica napus (canola) EPSP synthase DGT-3 (GENBANK P17688) variant DGT-3 v6 (G→A) (Brassica napus, UniProt P17688, G173A); test: In vitro kinetic assay (inorganic phosphate production, malachite green); format: biochemical; settings: for IC50: IC50 (glyphosate)
T1 construct: made in house; host or cells: E. coli Rosetta2 (DE3)
T1 sequence (P17688 73-516 G173A): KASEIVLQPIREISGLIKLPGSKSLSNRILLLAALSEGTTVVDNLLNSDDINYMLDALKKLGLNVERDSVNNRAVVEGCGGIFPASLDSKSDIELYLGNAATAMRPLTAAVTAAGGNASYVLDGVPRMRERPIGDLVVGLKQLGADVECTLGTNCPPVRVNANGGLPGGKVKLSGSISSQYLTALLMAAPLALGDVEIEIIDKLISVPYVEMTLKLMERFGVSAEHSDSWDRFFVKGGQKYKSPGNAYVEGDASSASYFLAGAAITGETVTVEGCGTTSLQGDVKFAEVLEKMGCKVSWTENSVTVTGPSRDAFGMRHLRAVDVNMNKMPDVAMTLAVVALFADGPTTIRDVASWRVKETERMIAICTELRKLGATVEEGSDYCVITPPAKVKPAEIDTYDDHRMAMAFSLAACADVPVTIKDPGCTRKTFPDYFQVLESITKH
Description: (§1) The following Class I enzymes: DGT-1 from Glycine max, DGT-3 from Brassica napus (GENBANK ACC NO: P17688), and DGT-7 from Triticum aestivum (GENBANK ACC NO: EU977181) were used as a comparison. The Class I EPSP synthase enzymes and mutant variants thereof were synthesized and evaluated. A mutation introduced into the plant EPSP synthase enzymes consisted of the Glycine to Alanine mutation made within the EPSP synthase enzyme at a similar location as that of the G96A mutation from the E. coli version of the enzyme. In addition, Threonine to Isoleucine and Proline to Serine mutations were introduced within these Class I EPSP synthase enzymes at analogous positions as that of amino acid 97 (T to I) and amino acid 101 (P to S) in the EPSP synthase of E. coli as described in Funke et al., (2009).
(§2) The location of the amino acid residue which was mutated from glycine to alanine is indicated by the first asterisk. The location of the amino acid residue which was mutated from threonine to isoleucine is indicated by the second asterisk. The location of the third amino acid residue which was mutated from proline to serine is indicated by the third asterisk. These mutations were introduced into different versions of DGT-1, DGT-3, and DGT-7. The different versions of the genes which contain the mutations are described in more detail below.
(§3) Additional constructs containing the dgt-1, dgt-3 and dgt-7 were synthesized. These constructs were used for in vitro testing of the dgt-1 v5, dgt-1 v6, dgt-1 v7, dgt-1 v8, dgt-3 v6, dgt-3 v7, dgt-3 v8, dgt-7 v5, dgt-7 v6, dgt-7 v7, and dgt-7 v8 gene sequences were outsourced to GeneArt for synthesis and cloning. The synthesized genes were cloned into the pET28 expression vector. The resulting constructions were labeled as pDAB102028 containing dgt-1 v5, pDAB102029 containing dgt-1 v6, pDAB102032 containing dgt-1 v7, pDAB102034 containing dgt-1 v8, pDAB100429 containing dgt-3 v6, pDAB100442 containing dgt-3 v7, pDAB100430 containing dgt-3 v8, pDAB102036 containing dgt-7 v5, pDAB102038 containing dgt-7 v6, pDAB102040 containing dgt-7 v7, and pDAB102042 containing dgt-7 v8.
(§4) Recombinant DGT proteins were overexpressed in Rosetta2™ (DE3) cells (Novagen, Madison, Wis.) from the constructs described above. A single colony was used to inoculate 50 mL starter cultures of LB containing chloramphenicol (25 μg/mL) and kanamycin (50 μg/mL) which were cultivated overnight at 37° C. The overnight cultures were used to inoculate 1 L of LB containing chloramphenicol (25 μg/mL) and kanamycin (50 μg/mL). The cultures were grown at 37° C. to an O.D.600=0.6 then placed in an ice water bath for 10 minutes. Expression of the target proteins was achieved by addition of IPTG to a final concentration of 500 μM. Induction was allowed to proceed overnight at 20° C. followed by harvesting via centrifugation at 8,000 rpm for 20 minutes. The cell pellets were stored at −80° C. until required for purification. All purification steps were carried out at 4° C.
(§5) Cell pellets from 1 L cultures were resuspended in 20-30 mL Buffer A (50 mM HEPES pH 7.5, 150 mM KCl, 2 mM DTT, 1 mM EDTA, 20 mM imidazole, and 5% glycerol). COMPLETE™ protease inhibitor cocktail (1 tablet/50 mL, Roche, Indianapolis, Ind.) and lysozyme (1 mg/mL, Sigma-Aldrich, St. Louis, Mo.) were then added and the suspension was stirred for 20 minutes. Cell lysis was performed using a Branson Sonifier 250 (3×60 second bursts) followed by removal of the cell debris by centrifugation at 16,000 rpm for 45 minutes. DGT enzymes were purified to homogeneity in one step via immobilized metal affinity chromatography (IMAC) using a 5 mL HisTrap FF crude column. The column was equilibrated in Buffer A and the sample was loaded in the same buffer. The column was then washed with 10 column volumes of Buffer A followed by elution in a 0-100% Buffer B (50 mM HEPES pH 7.5, 200 mM KCl, 2 mM DTT, 1 mM EDTA, 500 mM imidazole, and 5% glycerol) linear gradient over 25 column volumes. […]

[2] = target: T2, Triticum aestivum (wheat) EPSP synthase DGT-7 variant DGT-7 v8 (T→I, P→S; TIPS) (Triticum aestivum, UniProt B5M6A1, P172S/T168I); test: as above; format: biochemical
T2 construct: TIPS double mutant
T2 sequence (B5M6A1 with tags, fused parts or gaps T168I/P172S): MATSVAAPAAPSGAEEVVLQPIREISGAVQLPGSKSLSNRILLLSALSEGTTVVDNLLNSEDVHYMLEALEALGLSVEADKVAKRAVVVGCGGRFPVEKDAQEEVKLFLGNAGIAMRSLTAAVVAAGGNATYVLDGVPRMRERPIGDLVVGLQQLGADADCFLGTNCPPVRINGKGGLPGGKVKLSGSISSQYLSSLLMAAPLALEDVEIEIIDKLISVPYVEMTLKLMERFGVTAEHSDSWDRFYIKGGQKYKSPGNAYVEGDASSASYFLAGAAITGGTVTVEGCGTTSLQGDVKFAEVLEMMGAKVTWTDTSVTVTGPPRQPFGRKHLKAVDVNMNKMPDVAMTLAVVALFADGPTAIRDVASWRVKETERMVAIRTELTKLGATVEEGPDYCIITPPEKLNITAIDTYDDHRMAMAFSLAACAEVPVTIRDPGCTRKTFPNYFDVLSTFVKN
Description: as §1, §2, §3, §4, §5

Structure (SMILES)	increase of Km for PEP ([1]; G to A mutation vs un-mutated) [fold]	kcat/Km ([2]; PEP, pH 7.5, 1 mM S3P) [M⁻¹ s⁻¹]	Km ([2]; read-out: Km for PEP, pH 7.5, 1 mM S3P) [µM]	IC50 ([1]; at 60 μM PEP) [mM]	IC50 ([1]; at 1 mM PEP) [mM]	IC50 ([2]; IC50 (glyphosate), at 60 μM PEP) [mM]	IC50 ([2]; IC50 (glyphosate), at 1 mM PEP, values greater than 50 are estimates) [mM]	IC50 ([2]; tolerance to glyphosate, PEP concentration not given) [mM]
C=C(OP(=O)(O)O)C(=O)O [PEP, phosphoenolpyruvate]	~8	13600	60 to 200	–	–	–	–	–
O=C(O)CNCP(=O)(O)O [glyphosate, N-(phosphonomethyl)glycine]	–	–	–	8.7	15.8	3.6	> 80	3 to 6

Reference: patent publication US9873883B2, “Glyphosate resistant plants and associated methods” (Dow AgroSciences LLC, priority 2012, dated 2018)
